According to PubChem BioAssay (NCI):
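The compound was tested at five concentrations on cells cultured in 96-well plates, with a 48-hour exposure period. TGI: concentration producing complete growth inhibition.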

What was measured:
Assay in all cases: DTP human tumour cell line panel, 48 h
SN12C renal = tested on: SN12C renal
SK-OV-3 ovarian = tested on: SK-OV-3 ovarian
SW-620 colon = tested on: SW-620 colon
OVCAR-4 ovarian = tested on: OVCAR-4 ovarian
IGROV1 ovarian = tested on: IGROV1 ovarian
786-0 renal = tested on: 786-0 renal
U251 CNS = tested on: U251 CNS
CAKI-1 renal = tested on: CAKI-1 renal
LXFL 529 NSCLC = tested on: LXFL 529 NSCLC
HCT-15 colon = tested on: HCT-15 colon
HOP-62 NSCLC = tested on: HOP-62 NSCLC
TK-10 renal = tested on: TK-10 renal
SNB-19 CNS = tested on: SNB-19 CNS
DLD-1 colon = tested on: DLD-1 colon
K-562 leukemia = tested on: K-562 leukemia
A549 NSCLC = tested on: A549 NSCLC
CCRF-CEM leukemia = tested on: CCRF-CEM leukemia
HL-60(TB) leukemia = tested on: HL-60(TB) leukemia
ACHN renal = tested on: ACHN renal
SK-MEL-5 melanoma = tested on: SK-MEL-5 melanoma
NCI-H460 lung = tested on: NCI-H460 lung
DMS 273 small cell lung = tested on: DMS 273 small cell lung
NCI-H226 lung = tested on: NCI-H226 lung
XF 498 CNS = tested on: XF 498 CNS
HCT-116 colon = tested on: HCT-116 colon
HT29 colon = tested on: HT29 colon
UACC-257 melanoma = tested on: UACC-257 melanoma
RPMI-8226 leukemia = tested on: RPMI-8226 leukemia
UACC-62 melanoma = tested on: UACC-62 melanoma
HCC-2998 colon = tested on: HCC-2998 colon
OVCAR-8 ovarian = tested on: OVCAR-8 ovarian
KM20L2 colon = tested on: KM20L2 colon
MOLT-4 leukemia = tested on: MOLT-4 leukemia
COLO 205 colon = tested on: COLO 205 colon
NCI-H23 lung = tested on: NCI-H23 lung
SR leukemia = tested on: SR leukemia
SF-539 CNS = tested on: SF-539 CNS
SK-MEL-2 melanoma = tested on: SK-MEL-2 melanoma
HOP-18 NSCLC = tested on: HOP-18 NSCLC
M14 melanoma = tested on: M14 melanoma
KM12 colon = tested on: KM12 colon
OVCAR-5 ovarian = tested on: OVCAR-5 ovarian
M19-MEL melanoma = tested on: M19-MEL melanoma
RXF 393 renal = tested on: RXF 393 renal
UO-31 renal = tested on: UO-31 renal
LOX IMVI melanoma = tested on: LOX IMVI melanoma
EKVX NSCLC = tested on: EKVX NSCLC
HOP-92 NSCLC = tested on: HOP-92 NSCLC
SF-295 CNS = tested on: SF-295 CNS
SNB-78 CNS = tested on: SNB-78 CNS
OVCAR-3 ovarian = tested on: OVCAR-3 ovarian
NCI-H522 lung = tested on: NCI-H522 lung
SNB-75 CNS = tested on: SNB-75 CNS
SF-268 CNS = tested on: SF-268 CNS
DMS 114 small cell lung = tested on: DMS 114 small cell lung
SK-MEL-28 melanoma = tested on: SK-MEL-28 melanoma
MDA-MB-231 breast = tested on: MDA-MB-231 breast
PC-3 prostate = tested on: PC-3 prostate
NCI/ADR-RES ovarian = tested on: NCI/ADR-RES ovarian
T-47D breast = tested on: T-47D breast
MDA-N = tested on: MDA-N
BT-549 breast = tested on: BT-549 breast
MALME-3M melanoma = tested on: MALME-3M melanoma
MCF7 breast = tested on: MCF7 breast
HS 578T breast = tested on: HS 578T breast
MDA-MB-435 = tested on: MDA-MB-435
A498 renal = tested on: A498 renal
DU-145 prostate = tested on: DU-145 prostate

COc1cccc2c1C(=O)c1c(O)c3c(c(O)c1C2=O)C[C@@](O)(C(=O)CO)CC3OC1CC(NCCOCC(OC(C)=O)OC(C)=O)C(O)C(C)O1 (some centres not stated)
TGI (SN12C renal): 1.32 µM
TGI (SK-OV-3 ovarian): 47.9 µM
TGI (SW-620 colon): 1.71 µM
TGI (OVCAR-4 ovarian): 31.1 µM
TGI (IGROV1 ovarian): 3.04 µM
TGI (786-0 renal): 3.16 µM
TGI (U251 CNS): 1.23 µM
TGI (CAKI-1 renal): > 100 µM
TGI (LXFL 529 NSCLC): 12.2 µM
TGI (HCT-15 colon): 0.0144 µM
TGI (HOP-62 NSCLC): 0.009 µM
TGI (TK-10 renal): > 100 µM
TGI (SNB-19 CNS): > 100 µM
TGI (DLD-1 colon): 0.38 µM
TGI (K-562 leukemia): > 100 µM
TGI (A549 NSCLC): > 100 µM
TGI (CCRF-CEM leukemia): > 100 µM
TGI (HL-60(TB) leukemia): > 100 µM

COc1cc(O)c(C(=O)/C=C/c2ccc(OC)c(OCc3ccccc3)c2)c(OC)c1
TGI (ACHN renal): > 100 µM
TGI (SN12C renal): > 100 µM
TGI (SK-OV-3 ovarian): > 100 µM
TGI (SK-MEL-5 melanoma): > 100 µM
TGI (NCI-H460 lung): > 100 µM
TGI (SW-620 colon): > 100 µM
TGI (DMS 273 small cell lung): 1.76 µM
TGI (NCI-H226 lung): > 100 µM
TGI (XF 498 CNS): > 100 µM
TGI (HCT-116 colon): > 100 µM
TGI (HT29 colon): > 100 µM
TGI (UACC-257 melanoma): > 100 µM
TGI (RPMI-8226 leukemia): > 100 µM
TGI (OVCAR-4 ovarian): > 100 µM
TGI (IGROV1 ovarian): > 100 µM
TGI (UACC-62 melanoma): 7.33 µM
TGI (786-0 renal): > 100 µM
TGI (HCC-2998 colon): > 100 µM
TGI (U251 CNS): > 100 µM
TGI (OVCAR-8 ovarian): > 100 µM
TGI (KM20L2 colon): > 100 µM
TGI (CAKI-1 renal): > 100 µM
TGI (MOLT-4 leukemia): > 100 µM
TGI (COLO 205 colon): 2.09 µM
TGI (NCI-H23 lung): > 100 µM
TGI (SR leukemia): > 100 µM
TGI (LXFL 529 NSCLC): > 100 µM
TGI (SF-539 CNS): > 100 µM
TGI (SK-MEL-2 melanoma): > 100 µM
TGI (HCT-15 colon): > 100 µM
TGI (HOP-62 NSCLC): > 100 µM
TGI (TK-10 renal): > 100 µM
TGI (HOP-18 NSCLC): > 100 µM
TGI (M14 melanoma): > 100 µM
TGI (KM12 colon): > 100 µM
TGI (OVCAR-5 ovarian): > 100 µM
TGI (M19-MEL melanoma): > 100 µM
TGI (RXF 393 renal): > 100 µM
TGI (SNB-19 CNS): > 100 µM
TGI (UO-31 renal): > 100 µM
TGI (LOX IMVI melanoma): > 100 µM
TGI (EKVX NSCLC): > 100 µM
TGI (HOP-92 NSCLC): > 100 µM
TGI (DLD-1 colon): > 100 µM
TGI (SF-295 CNS): 2.43 µM
TGI (K-562 leukemia): > 100 µM
TGI (A549 NSCLC): > 100 µM
TGI (SNB-78 CNS): 6.52 µM
TGI (CCRF-CEM leukemia): > 100 µM
TGI (OVCAR-3 ovarian): > 100 µM
TGI (HL-60(TB) leukemia): > 100 µM
TGI (NCI-H522 lung): > 100 µM
TGI (SNB-75 CNS): > 100 µM

NC(=O)/N=C/c1c(O)c2ccccc2oc1=O
TGI (ACHN renal): > 100 µM
TGI (SF-268 CNS): > 100 µM
TGI (SN12C renal): > 100 µM
TGI (SK-MEL-5 melanoma): > 100 µM
TGI (NCI-H460 lung): > 100 µM
TGI (SW-620 colon): > 100 µM
TGI (DMS 273 small cell lung): > 100 µM
TGI (NCI-H226 lung): > 100 µM
TGI (DMS 114 small cell lung): > 100 µM
TGI (HCT-116 colon): > 100 µM
TGI (HT29 colon): > 100 µM
TGI (UACC-257 melanoma): > 100 µM
TGI (RPMI-8226 leukemia): > 100 µM
TGI (OVCAR-4 ovarian): > 100 µM
TGI (IGROV1 ovarian): > 100 µM
TGI (UACC-62 melanoma): > 100 µM
TGI (HCC-2998 colon): > 100 µM
TGI (OVCAR-8 ovarian): > 100 µM
TGI (KM20L2 colon): > 100 µM
TGI (MOLT-4 leukemia): > 100 µM
TGI (COLO 205 colon): > 100 µM
TGI (NCI-H23 lung): > 100 µM
TGI (LXFL 529 NSCLC): > 100 µM
TGI (SF-539 CNS): > 100 µM
TGI (SK-MEL-2 melanoma): > 100 µM
TGI (HCT-15 colon): > 100 µM
TGI (HOP-62 NSCLC): > 100 µM
TGI (TK-10 renal): > 100 µM
TGI (M14 melanoma): > 100 µM
TGI (SK-MEL-28 melanoma): > 100 µM
TGI (KM12 colon): > 100 µM
TGI (OVCAR-5 ovarian): > 100 µM
TGI (RXF 393 renal): 82.4 µM
TGI (SNB-19 CNS): > 100 µM
TGI (UO-31 renal): > 100 µM
TGI (LOX IMVI melanoma): > 100 µM
TGI (EKVX NSCLC): > 100 µM
TGI (HOP-92 NSCLC): > 100 µM
TGI (DLD-1 colon): > 100 µM
TGI (SF-295 CNS): > 100 µM
TGI (K-562 leukemia): > 100 µM
TGI (SNB-78 CNS): > 100 µM
TGI (CCRF-CEM leukemia): > 100 µM
TGI (OVCAR-3 ovarian): > 100 µM
TGI (HL-60(TB) leukemia): > 100 µM

COC(=O)c1c2c(cc3c1CC1(Cc4ccccc4C1)C3)CCC2
TGI (ACHN renal): 86.8 µM
TGI (SF-268 CNS): > 100 µM
TGI (SN12C renal): 95.8 µM
TGI (MDA-MB-231 breast): 44.9 µM
TGI (PC-3 prostate): 48.1 µM
TGI (SK-OV-3 ovarian): > 100 µM
TGI (SK-MEL-5 melanoma): 31.7 µM
TGI (NCI/ADR-RES ovarian): 96.1 µM
TGI (NCI-H460 lung): > 100 µM
TGI (SW-620 colon): 39.7 µM
TGI (T-47D breast): 43.2 µM
TGI (MDA-N): 33.9 µM
TGI (NCI-H226 lung): > 100 µM
TGI (BT-549 breast): 95.5 µM
TGI (HCT-116 colon): 84.4 µM
TGI (HT29 colon): 34 µM
TGI (UACC-257 melanoma): 47 µM
TGI (RPMI-8226 leukemia): 45.8 µM
TGI (OVCAR-4 ovarian): > 100 µM
TGI (IGROV1 ovarian): > 100 µM
TGI (UACC-62 melanoma): 58.8 µM
TGI (786-0 renal): > 100 µM
TGI (MALME-3M melanoma): 67.2 µM
TGI (HCC-2998 colon): 98.7 µM
TGI (U251 CNS): 48.6 µM
TGI (MCF7 breast): 23.4 µM
TGI (OVCAR-8 ovarian): > 100 µM
TGI (CAKI-1 renal): 78.2 µM
TGI (HS 578T breast): 79.7 µM
TGI (MOLT-4 leukemia): 40.2 µM
TGI (COLO 205 colon): 42.1 µM
TGI (NCI-H23 lung): > 100 µM
TGI (SR leukemia): 54.2 µM
TGI (SF-539 CNS): > 100 µM
TGI (MDA-MB-435): 39.1 µM
TGI (HCT-15 colon): > 100 µM
TGI (HOP-62 NSCLC): > 100 µM
TGI (TK-10 renal): > 100 µM
TGI (SK-MEL-28 melanoma): > 100 µM
TGI (KM12 colon): 70.2 µM
TGI (OVCAR-5 ovarian): > 100 µM
TGI (RXF 393 renal): 52.9 µM
TGI (UO-31 renal): > 100 µM
TGI (LOX IMVI melanoma): 34 µM
TGI (EKVX NSCLC): 98.7 µM
TGI (HOP-92 NSCLC): > 100 µM
TGI (A498 renal): > 100 µM
TGI (SF-295 CNS): 61.7 µM
TGI (K-562 leukemia): 24.3 µM
TGI (A549 NSCLC): > 100 µM
TGI (CCRF-CEM leukemia): 40.9 µM
TGI (OVCAR-3 ovarian): 47.6 µM
TGI (HL-60(TB) leukemia): 69.5 µM
TGI (NCI-H522 lung): 35.2 µM
TGI (DU-145 prostate): > 100 µM
TGI (SNB-75 CNS): > 100 µM
